Reference: ChEMBL document CHEMBL4396945, “Hybrid molecules of scutellarein and tertramethylpyrazine's active metabolites for ischemic stroke” (Bioorg Med Chem Lett, 2019)
In brackets after ≈: the same amount, converted by molar mass. Activity calls are given as the source filed them. The rule behind the calls is not given here.

Legend:
[1] = Solubility in water; type: physicochemical
PC-12 = test: Antioxidant activity against H2O2-induced oxidative stress in rat PC12 cells assessed as cell viability preincubated for 24 hrs followed by H2O2 stimulation further incubated for 5 hrs by MTS assay; type: functional, cell-based
[2] = Stability in pH 7.4 phosphate buffer assessed as half life; type: physicochemical
[3] = Lipophilicity, logP of compound; type: physicochemical; conditions: octanol/water
Rattus norvegicus [4] = test: Neuroprotective activity in Sprague-Dawley rat model of middle cerebral artery occlusion-induced ischemia-reperfusion injury assessed as decrease in infarct area at 0.7 mmol/kg, ig for 7 days by TTC staining based assay; type: functional, organism-based
Plasma [5] = test: Anticoagulant activity in rabbit platelet poor plasma assessed as prothrombin time at 100 uM incubated for 3 mins by coagulometric analysis (reference value: 4.32 +/- 0.28 sec); type: functional, Oryctolagus cuniculus
Plasma [6] = test: Anticoagulant activity in rabbit platelet poor plasma assessed as fibrinogen level at 100 uM incubated for 3 mins by coagulometric analysis (reference value: 14.24 +/- 0.67 g/l); type: functional, Oryctolagus cuniculus
Plasma [7] = test: Anticoagulant activity in rabbit platelet poor plasma assessed as activated partial thromboplastin time at 100 uM incubated for 3 mins by coagulometric analysis (reference value: 19.13 +/- 0.54 sec); type: functional, Oryctolagus cuniculus
Plasma [8] = test: Anticoagulant activity in rabbit platelet poor plasma assessed as thrombin time at 100 uM incubated for 3 mins by coagulometric analysis (reference value: 12.58 +/- 0.76 sec); type: functional, Oryctolagus cuniculus
Rattus norvegicus [9] = test: Neuroprotective activity in Sprague-Dawley rat middle cerebral artery occlusion-induced ischemia-reperfusion injury model assessed as reduction in dissolution of hippocampus CA1 at 0.35 to 1.40 mmol/kg, ig administered for 7 days by HE staining based assay; type: functional, organism-based
Rattus norvegicus [10] = test: Neuroprotective activity in Sprague-Dawley rat middle cerebral artery occlusion-induced ischemia-reperfusion injury model assessed as reduction in hyperchromic of hippocampus CA1 at 0.35 to 1.40 mmol/kg, ig administered for 7 days by HE staining based assay; type: functional, organism-based
Rattus norvegicus [11] = test: Neuroprotective activity in ig dosed Sprague-Dawley rat model of middle cerebral artery occlusion-induced ischemia-reperfusion injury assessed as decrease in infarct area by TTC staining based assay; type: functional, organism-based
Rattus norvegicus [12] = test: Neuroprotective activity in Sprague-Dawley rat middle cerebral artery occlusion-induced ischemia-reperfusion injury model assessed as decrease in irregular cell morphology of hippocampus CA1 at 0.35 to 1.40 mmol/kg, ig administered for 7 days by HE staining based assay; type: functional, organism-based
Rattus norvegicus [13] = test: Neuroprotective activity in Sprague-Dawley rat middle cerebral artery occlusion-induced ischemia-reperfusion injury model assessed as reduction in nuclear pyknosis of hippocampus CA1 at 0.35 to 1.40 mmol/kg, ig administered for 7 days by HE staining based assay; type: functional, organism-based

Compound	solubility [1] [µg/mL]	Activity (PC-12)	half-life [2] [min]	logP [3]	Activity (Rattus norvegicus [4])	PT (Plasma [5]) [s]	Fibrinogen level (Plasma [6]) [g/L]	APTT (Plasma [7]) [s]	TT (Plasma [8]) [s]	Activity (Rattus norvegicus [9])	Activity (Rattus norvegicus [10])	Activity (Rattus norvegicus [11])	Activity (Rattus norvegicus [12])	Activity (Rattus norvegicus [13])
Cc1nc(C)c(C(=O)Oc2ccc(-c3cc(=O)c4c(O)c(O)c(O)cc4o3)cc2)nc1C	12.1 (≈ 27.9 µM)	Dose-dependent effect	906	3.01										
Cc1nc(C)c(C(=O)N[C@@H](C(=O)N[C@@H](C)C(=O)Oc2ccc(-c3cc(=O)c4c(O)c(O)c(O)cc4o3)cc2)C(C)C)nc1C	856 (≈ 1420 µM)	Dose-dependent effect	3100	1.98										
Cc1nc(C)c(C(=O)N[C@@H](C(=O)Oc2ccc(-c3cc(=O)c4c(O)c(O)c(O)cc4o3)cc2)C(C)C)nc1C	240 (≈ 449 µM)	Dose-dependent effect	> 4320	1.38										
Cc1nc(C)c(COC(=O)COc2ccc(-c3cc(=O)c4c(O)c(O)c(O)cc4o3)cc2)nc1C	30.6 (≈ 64 µM)	Dose-dependent effect	1280	2.39										
Cc1nc(C)c(COC(=O)CCCOc2ccc(-c3cc(=O)c4c(O)c(O)c(O)cc4o3)cc2)nc1C	356 (≈ 703 µM)	Dose-dependent effect	1190	1.48										
Cc1nc(C)c(C(=O)N[C@H](CC(C)C)C(=O)Oc2ccc(-c3cc(=O)c4c(O)c(O)c(O)cc4o3)cc2)nc1C	26 (≈ 47.5 µM)	Dose-dependent effect	4150	0.91										
O=c1cc(-c2ccc(O)cc2)oc2cc(O)c(O)c(O)c12 [SCUTELLAREIN]	14.4 (≈ 50.3 µM)	Dose-dependent effect	330	0.96	Active	5.72	7.41	34.26	18.12					
CC[C@H](C)[C@@H](NC(=O)OCc1nc(C)c(C)nc1C)C(=O)Oc1ccc(-c2cc(=O)c3c(O)c(O)c(O)cc3o2)cc1	234 (≈ 406 µM)	Dose-dependent effect	3890	2.83		8.32	2.54	49.28	38.42					
Cc1nc(C)c(C(=O)NCC(=O)Oc2ccc(-c3cc(=O)c4c(O)c(O)c(O)cc4o3)cc2)nc1C	628 (≈ 1280 µM)	Dose-dependent effect	> 4320	2.8		6.39	3.12	43.57	32.16					
Cc1nc(C)c(COC(=O)NCC(=O)Oc2ccc(-c3cc(=O)c4c(O)c(O)c(O)cc4o3)cc2)nc1C	454 (≈ 871 µM)	Dose-dependent effect	858	2.1										
Cc1nc(C)c(COC(=O)N[C@@H](C(=O)Oc2ccc(-c3cc(=O)c4c(O)c(O)c(O)cc4o3)cc2)C(C)C)nc1C	252 (≈ 448 µM)	Dose-dependent effect	2740	1.04										
Cc1nc(C)c(COC(=O)N[C@H](CC(C)C)C(=O)Oc2ccc(-c3cc(=O)c4c(O)c(O)c(O)cc4o3)cc2)nc1C	221 (≈ 382 µM)	Dose-dependent effect	3430	1.69		8.57	2.47	47.56	37.91					
Cc1nc(C)c(C)nc1C [LIGUSTRAZINE]	4500 (≈ 33000 µM)	Dose-dependent effect		1.26	Active	6.13	3.28	39.24	25.36					
Cc1nc(C)c(COC(=O)N[C@H](C)C(=O)Oc2ccc(-c3cc(=O)c4c(O)c(O)c(O)cc4o3)cc2)nc1C	799 (≈ 1490 µM)	Dose-dependent effect	1670	1.53		7.72	2.68	48.21	36.25	Active	Active	Dose-dependent effect	Active	Active
